# Values quoted from earlier work in patent US8895039B2, “Cosmetic preparations containing hydrocarbons” (Cognis IP Management GmbH, priority 2007, dated 2014).
# Details: at 20° C.
smiles,measurement,value
CCCCCCCCC [Nonane],Viscosity,0.711 cP
